Key:
[1] = test system: human intestinal cell line NCI-H716; conditions: literature report, background art; cited from earlier work
[2] = target: GT01 (Mus musculus, UniProt Q7TMA4); conditions: STC-1 cells; peak eliminated by RNAi specific for GT01 (FIG. 6)
Experimental: Cells (STC-1 cells) are cultured in a 35-mm culture dish with a cover glass in the bottom. After washing with a Ca-tyrode solution, a Ca-tyrode solution containing 2 μM fura-AM is added thereto, which is then placed at room temperature for 20 minutes. After washing twice with a Ca-tyrode solution, 1 mL of Ca-tyrode solution is added thereto, and images are captured at room temperature at 15-second intervals using ARGUS200 (340/380 nm measurement) with a 40× objective lens. For each of the captured images, the ratio is calculated. Stimulation (using bombesin) serving as a control for the ligand is carried out 10 and 20 minutes later.
When an RNAi vector was transfected, fluorescence due to GFP simultaneously transfected is measured; a Ca^2+ response over time for cells having GFP fluorescence and showing Ca^2+ elevation with the control vector was quantitatively determined, and is indicated (FIG. 6).
The gene transfection into STC-1 cells was carried out using Lipofectamine Plus, and intracellular Ca^2+ concentration was then measured under a microscope (lower graph in FIG. 6).

[3] = test system: GLP-1 release; assay: In vivo effects of ligands for GT01 on GLP-1 release (plasma GLP-1 enzyme immunoassay); design: species or system mouse; conditions: 100 nmol/g directly into the stomach of 24-hour fasted C57/B6 mice; blood 0.5 or 2 hours after administration (FIG. 11)
Experimental: A 100 nmol/g of fatty acid (α-linolenic acid, stearic acid, or octanoic acid) was included in polyethyleneglycol as a vehicle, and given, through a tube, directly into the stomach of 8-week old male C57/B6 mice (Sankyo Lab) after 24-hour fasting. The mice were each anaesthetized with diethyl ether 0.5 or 2 hours after the administration of the fatty acid, followed by sampling the blood from the portal vein using a heparinized syringe. The heparizized blood was centrifuged at 4° C. and 1,200×g for 20 minutes to prepare a plasma which was then subjected to enzyme immunoassay for GLP-1 (Yanaihara Institute Inc.). All experiments were performed according to an institute-approved guideline.

[4] = test system: insulin release; conditions: 100 nmol/g directly into the stomach of 24-hour fasted C57/B6 mice; 2 hours after administration (FIG. 13)
Experimental: All experiments were performed according to an institute-approved guideline.

Chain of GT01 (Q7TMA4 whole entry): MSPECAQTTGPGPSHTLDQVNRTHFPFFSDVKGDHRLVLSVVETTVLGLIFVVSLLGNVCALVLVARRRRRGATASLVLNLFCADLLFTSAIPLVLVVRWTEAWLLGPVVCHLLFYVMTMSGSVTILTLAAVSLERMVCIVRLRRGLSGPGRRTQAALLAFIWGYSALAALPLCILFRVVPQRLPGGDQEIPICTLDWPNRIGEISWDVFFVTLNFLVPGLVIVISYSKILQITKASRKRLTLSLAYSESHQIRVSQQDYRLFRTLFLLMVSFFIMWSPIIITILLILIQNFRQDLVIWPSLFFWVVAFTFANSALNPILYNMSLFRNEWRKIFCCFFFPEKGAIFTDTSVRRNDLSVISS

In the case of `CCCCCCCCCCCCCCCC(=O)O` [palmitic acid], the “secretion of GLP-1 from NCI-H716 cells” value [1] is given as “promotes the secretion of GLP-1”.

In the case of `CCCCCCCC/C=C\CCCCCCCC(=O)O` [oleic acid], the “secretion of GLP-1 from NCI-H716 cells” value [1] is given as “promotes the secretion of GLP-1”.

With `CC/C=C\C/C=C\C/C=C\CCCCCCCC(=O)O` [α-linolenic acid] the “elevation of intracellular calcium concentration” value [2] was “elevates intracellular calcium concentration via GT01”, the “secretion of GLP-1 (plasma from portal vein)” value [3] was “induced” and the “insulin concentration in plasma, portal vein versus inferior vena cava” value [4] was “higher concentration of insulin was detected in the plasma sampled from the portal vein”.

For `CCCCCCCCCCCCCCCCCC(=O)O` [stearic acid], the “secretion of GLP-1 (plasma from portal vein)” value [3] was “induced”.
